Settings: Liquid, Vibrating wire viscometry

Cc1ccccc1 [toluene]
viscosity [mPa·s]
Settings | 293.15 K | 298.15 K | 313.15 K | 323.15 K | 333.15 K | 348.15 K | 353.15 K | 373.15 K
100 kPa | 0.5907 | 0.5555 | 0.469 | 0.4214 | 0.3804 | 0.3302 | 0.3163 | 0.2667
1000 kPa | 0.5928 | 0.5603 | 0.4746 | 0.4238 | 0.3856 | 0.3361 | 0.3177 | 0.2671
5000 kPa | 0.6152 | 0.5772 | 0.4885 | 0.4385 | 0.3986 | 0.3457 | 0.3319 | 0.2782
10000 kPa | 0.6387 | 0.6006 | 0.5046 | 0.4551 | 0.4153 | 0.3588 | 0.3449 | 0.2893
20000 kPa | 0.6881 | 0.6478 | 0.5496 | 0.4877 | 0.4495 | 0.3876 | 0.3701 | 0.315
30000 kPa | 0.7354 | 0.692 | 0.5914 | 0.5293 | 0.4794 | 0.418 | 0.4006 | 0.3401
40000 kPa | 0.7913 | 0.7442 | 0.6239 | 0.565 | 0.5135 | 0.4485 | 0.4291 | 0.3643
50000 kPa | 0.8532 | 0.7983 | 0.6704 | 0.6021 | 0.5485 | 0.4795 | 0.462 | 0.3876
60000 kPa | 0.908 | 0.8463 | 0.7133 | 0.6377 | 0.5835 | 0.5089 | 0.4919 | 0.4138
70000 kPa | 0.9632 | 0.9027 | 0.7572 | 0.6789 | 0.6187 | 0.5441 | 0.5176 | 0.4372
80000 kPa | 1.022 | 0.9625 | 0.8098 | 0.7322 | 0.6579 | 0.5721 | 0.5478 | 0.4649
100000 kPa | 1.149 | 1.081 | 0.9082 | 0.809 | 0.7353 | 0.6407 | 0.6113 | 0.5193
120000 kPa | 1.287 | 1.211 | 1.009 | 0.9034 | 0.8176 | 0.7088 | 0.6825 | –
140000 kPa | 1.456 | 1.349 | 1.128 | 1.004 | 0.9111 | 0.7836 | 0.755 | –
